Here are results for one compound from US9814732B2, “Ulipristal acetate for prevention and treatment of breast tumors” (LABORATOIRE HRA-PHARMA, priority 2012, dated 2017).

Assay [1] relates to PR target genes (FASN, cyclin A, BCL2, ALPL). Description: qRT-PCR mRNA expression of PR target genes in T-47D cells. The assay is classed as cell-based, human. Here is the method: (§1) After seeding, cells were cultured for 24 h in serum and phenol red free medium. Then treatments were carried out in a phenol red free medium containing 5% dextran-charcoal stripped serum. Cells were treated with P or DEX (100 nM), alone or in combination with UPA, RU (1 nM to 1 μM) or CDB-3877 (100 nM). Control cells were treated with ethanol, at […] 1:1000 final ethanol concentration alone as vehicle or E2 (10 nM).
Total RNA was extracted using TriZOL Reagent (Invitrogen, Cergy-Pontoise, France).
2 μg of total RNA was subjected to reverse transcription (RT) using random primers for 1 h at 37° C. 2 μl of RT product was diluted (1:10) and subjected to quantitative PCR using sequence specific primers (300 nM) and Brillant SYBR GREEN QPCR master mix (Fermentas, Saint-Rémy-lès-Chevreuse, France) on an Mx3000P apparatus (Agilent Technologies, Massy, France). Conditions were 1 cycle at 95° C. for 10 min followed by 40 cycles at 95° C. for 30 sec, 60° C. for 1 min and 72° C. for 30 sec. Gene expression values were normalized to the housekeeping gene 36B4. Time of steroid treatment was chosen to get the optimal stimulation for a given gene. ALPL and G0S8 mRNA were analyzed after 6 h of treatment. IEX-1, FASN, and BCL2 were analyzed after 24 h of treatment. Cyclin A mRNA was analyzed after 24 h for GR responses or 48 h for PR responses.

A further assay deals with T1, GR (Homo sapiens, UniProt P04150).
T1 sequence (P04150 1-777): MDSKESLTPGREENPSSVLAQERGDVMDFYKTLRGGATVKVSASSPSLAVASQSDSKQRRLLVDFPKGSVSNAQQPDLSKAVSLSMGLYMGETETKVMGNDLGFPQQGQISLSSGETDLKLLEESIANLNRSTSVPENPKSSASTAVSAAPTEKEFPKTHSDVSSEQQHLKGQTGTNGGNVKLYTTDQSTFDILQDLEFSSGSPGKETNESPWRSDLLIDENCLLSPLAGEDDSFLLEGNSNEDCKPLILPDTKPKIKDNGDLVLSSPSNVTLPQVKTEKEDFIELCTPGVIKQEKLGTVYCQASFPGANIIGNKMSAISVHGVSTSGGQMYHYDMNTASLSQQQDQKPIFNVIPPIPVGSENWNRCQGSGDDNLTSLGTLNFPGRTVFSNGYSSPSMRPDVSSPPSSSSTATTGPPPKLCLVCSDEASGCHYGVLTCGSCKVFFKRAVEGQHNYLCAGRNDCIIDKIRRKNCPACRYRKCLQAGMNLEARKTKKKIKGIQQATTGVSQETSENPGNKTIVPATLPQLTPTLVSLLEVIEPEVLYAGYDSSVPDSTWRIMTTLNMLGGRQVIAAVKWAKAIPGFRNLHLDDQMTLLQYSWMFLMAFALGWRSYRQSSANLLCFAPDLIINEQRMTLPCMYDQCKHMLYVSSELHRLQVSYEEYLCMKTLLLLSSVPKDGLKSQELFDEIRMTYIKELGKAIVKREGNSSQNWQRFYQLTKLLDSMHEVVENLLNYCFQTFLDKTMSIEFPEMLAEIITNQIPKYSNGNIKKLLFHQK
In words: GRE-Luc reporter gene transactivation in HBE cells. The class given is cell-based. The conditions noted are these: DEX 100 nM, test compound 100 nM, read-out: inhibition of DEX induced luciferase transactivation (GRE-Luc). For orientation: In a reporter assay the amount or activity of a reporter protein is the signal.

A further assay relates to T-47D cells. In words: Tritiated thymidine incorporation (proliferation) in T-47D cells. The class given is cell-based, human. The conditions noted are these: 48 h. Here is the method:
as §1
(§2) After 24 h of hormonal treatment, cells were incubated with [methyl-1 3H] thymidine (Perkin Elmer, Courtaboeuf, France) for 48 h or 20 h for KBE or cancer cells, respectively at 37° C. After incubation cells were washed twice with PBS 1× and once with 5% trichloroacetic acid (TCA). Cells were incubated in 5% TCA for 15 min at 4° C. and lysed in NaOH 0.1 N for 30 min at 37° C. The total cell lysate was added to 5 ml of Ecolite scintillation liquid (MP biomedical, Illkirch, France) and radioactivity was counted with a β-counter HIDEX 300SL (ScienceTec, Courtaboeuf, France).
(In general: Dividing cells build labelled thymidine or BrdU into new DNA.)

The subject of another assay is MCF-7 cells. In words: Tritiated thymidine incorporation (proliferation) in MCF-7 cells. The assay is classed as cell-based, human. The conditions noted are these: 48 h. Here is the method:
as §1, §2

The target of the next assay is T2, PR (Homo sapiens, UniProt P06401).
T2 sequence (P06401 1-933): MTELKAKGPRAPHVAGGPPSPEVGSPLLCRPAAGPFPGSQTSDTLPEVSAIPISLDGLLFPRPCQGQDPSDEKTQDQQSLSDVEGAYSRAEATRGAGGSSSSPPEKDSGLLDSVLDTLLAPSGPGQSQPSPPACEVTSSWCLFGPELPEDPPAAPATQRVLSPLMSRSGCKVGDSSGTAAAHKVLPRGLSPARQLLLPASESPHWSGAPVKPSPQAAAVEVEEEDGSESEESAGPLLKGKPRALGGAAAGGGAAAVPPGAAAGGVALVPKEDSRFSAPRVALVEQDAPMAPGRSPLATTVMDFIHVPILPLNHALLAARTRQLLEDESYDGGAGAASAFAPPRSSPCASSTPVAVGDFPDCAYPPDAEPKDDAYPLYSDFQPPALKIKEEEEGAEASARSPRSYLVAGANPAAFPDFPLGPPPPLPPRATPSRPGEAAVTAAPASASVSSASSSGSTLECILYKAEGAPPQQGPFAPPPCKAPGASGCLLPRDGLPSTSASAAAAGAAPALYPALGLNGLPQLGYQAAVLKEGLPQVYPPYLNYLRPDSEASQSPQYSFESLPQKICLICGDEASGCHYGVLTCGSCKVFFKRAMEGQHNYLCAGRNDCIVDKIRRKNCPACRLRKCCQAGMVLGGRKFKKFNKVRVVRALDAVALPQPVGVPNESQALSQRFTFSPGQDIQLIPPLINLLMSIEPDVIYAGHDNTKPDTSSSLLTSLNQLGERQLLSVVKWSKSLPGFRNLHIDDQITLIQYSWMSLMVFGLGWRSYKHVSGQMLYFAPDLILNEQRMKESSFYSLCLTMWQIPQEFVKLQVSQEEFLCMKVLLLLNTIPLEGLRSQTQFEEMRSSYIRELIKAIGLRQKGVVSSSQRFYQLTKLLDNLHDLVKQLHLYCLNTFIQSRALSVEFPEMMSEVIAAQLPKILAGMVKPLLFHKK
In words: MMTV-Luc reporter gene transactivation in T-47D cells. The class given is cell-based. More on the design: constitutively expressed high amounts of PR (progesterone receptor); endogenous in cells; host or cells: T-47D.

What is called inhibition is the drop in the measured response relative to a control, in per cent. `CC(=O)O[C@]1(C(C)=O)CCC2C3CCC4=CC(=O)CCC4=C3[C@@H](c3ccc(N(C)C)cc3)C[C@@]21C` (stereo partly shown) [UPA, 17[…]-acetoxy-11[…]-[4-N,N-dimethylamino-phenyl)-19-norpregna-4,9-diene-3,20-dione]: the “ALPL mRNA expression” value in assay [1] (P and/or UPA 100 nM, 6 h) is on record as “totally inhibited the strong P mediated induction of ALPL transcript”. Also, the “FASN mRNA expression” value in assay [1] (P and/or UPA 100 nM, 24 h) is “able to prevent P induction of FASN mRNA expression”. Moreover, the “BCL2 mRNA expression (PR response)” value in assay [1] (P and/or UPA 100 nM, 24 h, p<0.01) is “antagonized the P inhibitory effect on this transcript”. Further, the “cyclin A mRNA expression (PR response)” value in assay [1] (P and/or UPA 100 nM, 48 h) is reported as “reversed P-induced cyclin A mRNA down-regulation”. Further, the “PR agonist activity on PR target genes” value in assay [1] (UPA 100 nM alone) was “did not display any PR agonist activity”. Moreover, the inhibition at 0.1 µM at GR turned out to be 41.3 ± 5.8%. Also, the “cell proliferation ([3H] thymidine incorporation), compound alone” value in the assay on T-47D cells (100 nM) and in the assay on MCF-7 cells (100 nM) was “had no effect on proliferation” each time. Moreover, in the assay with T-47D cells (P 100 nM + UPA 100 nM), the “effect of UPA on P-mediated proliferation change” value is reported as “reversed P anti-proliferative activity”. For the same compound, the “effect of UPA on DEX-mediated proliferation change” value in the assay on MCF-7 cells (DEX 100 nM + UPA 100 nM) is “tended to prevent the weak anti-proliferative effects of DEX”. Moreover, the “PR antagonist response on MMTV-Luc transactivation at 1 nM” value at PR (P 100 nM, antagonist 1 nM) is recorded as “Partial antagonist responses”. Moreover, the “PR antagonist action on MMTV-Luc transactivation” value at PR (P 100 nM, antagonist 1000 to 10 nM) was “potent PR antagonist actions from 1000 to 10 nM”. Moreover, at PR (compound alone), the “progestational agonist properties on reporter gene transcription” value was “did not exhibit progestational agonist properties”.
